Results from patent US8039586B1, “Cerebral organic anion transporter and its gene” (J-Pharma Co., Ltd., priority 1998, dated 2011).
Where two headings read alike, the source gives them in different places.

Key:
rat OAT3 (rk1411) [1] = target: T1, rat OAT3 (rk1411) (Rattus norvegicus, UniProt Q9R1U7); assay: Uptake of radiolabeled organic anions and cations by Xenopus oocyte expressing rk1411 (rat OAT3); assay type: cell-based; conditions: Xenopus oocyte injected with rk1411 cRNA; FIG. 1
T1 construct: cRNA (RNA complementary to cDNA) was prepared in vitro from the plasmid carrying the clone (rk1411); expressed in transfected cells; host or cells: Xenopus oocytes injected with rk1411 cRNA
T1 sequence (Q9R1U7 1-536): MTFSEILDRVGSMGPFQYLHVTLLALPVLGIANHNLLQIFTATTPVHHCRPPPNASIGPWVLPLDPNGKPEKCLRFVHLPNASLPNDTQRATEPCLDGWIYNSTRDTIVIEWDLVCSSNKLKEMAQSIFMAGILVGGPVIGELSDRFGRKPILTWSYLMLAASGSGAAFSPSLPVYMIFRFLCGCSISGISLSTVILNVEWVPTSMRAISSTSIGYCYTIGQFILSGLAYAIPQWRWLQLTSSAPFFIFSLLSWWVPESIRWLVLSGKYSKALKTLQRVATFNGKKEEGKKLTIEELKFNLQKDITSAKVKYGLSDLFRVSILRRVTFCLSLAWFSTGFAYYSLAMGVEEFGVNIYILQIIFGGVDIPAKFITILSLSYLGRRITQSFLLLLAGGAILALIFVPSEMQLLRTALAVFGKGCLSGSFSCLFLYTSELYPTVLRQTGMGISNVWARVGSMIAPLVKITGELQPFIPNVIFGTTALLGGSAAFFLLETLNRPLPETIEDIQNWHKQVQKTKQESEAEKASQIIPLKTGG
Protocol: According to the method already reported (Sekine, T., et al. J. Biol. Chem., Vol. 272, pp. 18526-9, 1997), the resulting cRNA was injected in the Xenopus oocyte; the oocyte was subjected to an uptake test with various radiolabeled organic anions and organic cations.

rat OAT3 (rk1411) [2] = target: T1, rat OAT3 (rk1411); assay: Michaelis-Menten dynamic test of organic anion transport with rk1411 in oocyte; assay type: cell-based
From the text: The organic anion transport with rk1411 was subjected to the Michaelis-Menten dynamic test.

hOAT3 [3] = target: T2, hOAT3 (Homo sapiens, UniProt Q8TCC7); assay: Uptake of radiolabeled compounds by Xenopus oocyte injected with hOAT3 cRNA; assay type: cell-based; conditions: one hour, versus control oocyte
T2 construct: cRNA (RNA complementary to cDNA) was prepared in vitro from the plasmid comprising the hOAT3 recovered above; expressed in transfected cells; host or cells: Xenopus oocytes injected with hOAT3 cRNA
T2 sequence (Q8TCC7 1-542 K271E/D366H): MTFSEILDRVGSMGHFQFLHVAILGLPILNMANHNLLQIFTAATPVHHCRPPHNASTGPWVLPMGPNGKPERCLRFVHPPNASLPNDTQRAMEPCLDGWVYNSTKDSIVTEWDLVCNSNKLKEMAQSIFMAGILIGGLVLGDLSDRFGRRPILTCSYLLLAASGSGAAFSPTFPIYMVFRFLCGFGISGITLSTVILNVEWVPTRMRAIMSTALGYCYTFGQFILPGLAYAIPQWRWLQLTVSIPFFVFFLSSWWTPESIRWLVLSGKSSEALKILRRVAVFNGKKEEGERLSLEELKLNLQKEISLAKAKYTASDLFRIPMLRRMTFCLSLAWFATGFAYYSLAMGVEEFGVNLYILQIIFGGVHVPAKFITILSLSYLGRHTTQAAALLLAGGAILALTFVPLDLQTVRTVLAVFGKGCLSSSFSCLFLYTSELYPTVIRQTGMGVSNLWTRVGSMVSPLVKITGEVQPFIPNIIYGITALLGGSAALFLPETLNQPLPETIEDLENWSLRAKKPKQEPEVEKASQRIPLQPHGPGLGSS
Protocol: By using T7 RNA polymerase, cRNA (RNA complementary to cDNA) was prepared in vitro from the plasmid comprising the hOAT3 recovered above by the method by Sekine, et al. (see Sekine, T., et al. J. Biol. Chem., Vol. 272, pp. 18526-9, 1997).
According to the already reported method of Sekine, et al. (Sekine, T., et al. J. Biol. Chem., Vol. 272, pp. 18526-9, 1997), the resulting hOAT3 cRNA was injected in the Xenopus oocyte; the oocyte was subjected to an uptake test with various radiolabeled organic anions and organic cations. The control oocyte cell (oocyte cell with no injection of hOAT3 cRNA) and the oocyte cell injected with hOAT3 cRNA were cultured in a buffer containing the following radiolabels for one hour, to assay the uptake of the radiolabels into the oocytes.
In each figure, open column expresses the case of the control oocyte used; and closed column expresses the case of the oocyte injected with hOAT3 cRNA.

hOAT3 [4] = target: T3, hOAT3 (Homo sapiens, UniProt Q8TCC7, D366H/K271E); assay: Inhibition of 3H-estrone sulfate uptake in oocyte injected with hOAT3 cRNA; assay type: cell-based; design: cRNA (RNA complementary to cDNA) was prepared in vitro from the plasmid comprising the hOAT3 recovered above; expressed in transfected cells; host or cells: Xenopus oocytes injected with hOAT3 cRNA; conditions: 50 nM 3H-estrone sulfate; non-radiolabeled compound at 500 μM or the concentration shown in FIG. 19; one hour
T3 sequence (Q8TCC7 1-542 K271E/D366H): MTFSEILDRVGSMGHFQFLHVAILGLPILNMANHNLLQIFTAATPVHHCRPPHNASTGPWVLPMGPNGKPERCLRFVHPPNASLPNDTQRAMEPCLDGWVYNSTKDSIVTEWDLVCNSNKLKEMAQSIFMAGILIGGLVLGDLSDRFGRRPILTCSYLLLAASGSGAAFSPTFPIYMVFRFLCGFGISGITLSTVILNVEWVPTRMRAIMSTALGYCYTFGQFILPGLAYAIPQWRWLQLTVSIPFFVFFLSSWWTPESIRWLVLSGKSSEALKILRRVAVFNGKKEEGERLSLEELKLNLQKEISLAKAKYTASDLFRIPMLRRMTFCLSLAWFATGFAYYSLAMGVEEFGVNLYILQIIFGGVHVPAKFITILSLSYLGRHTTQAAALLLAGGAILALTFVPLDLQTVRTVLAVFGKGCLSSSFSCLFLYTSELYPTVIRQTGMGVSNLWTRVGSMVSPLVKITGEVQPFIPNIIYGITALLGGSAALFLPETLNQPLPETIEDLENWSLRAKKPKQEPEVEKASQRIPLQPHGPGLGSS

hOAT3 [5] = target: T3, hOAT3; conditions: transport by hOAT3 in Xenopus oocyte
From the text: Then, the hOAT3 transport of organic anions was examined at the Michaelis-Menten kinetic test.

[6] = substrate: Nc1ccc(C(=O)NCC(=O)O)cc1; assay: Michaelis-Menten dynamic test of organic anion transport with rk1411 in oocyte; assay type: cell-based; conditions: other: transport by rk1411 (rat OAT3) in Xenopus oocyte; FIG. 2
[7] = substrate: CN(Cc1cnc2nc(N)nc(N)c2n1)c1ccc(C(=O)N[C@@H](CCC(=O)O)C(=O)O)cc1; assay: cells, lysate or membranes; conditions: other: transport by hOAT3 in Xenopus oocyte
[8] = transport by rk1411 (rat OAT3) in Xenopus oocyte
[9] = transport by rk1411 (rat OAT3) in Xenopus oocyte, FIG. 2, read-out: Km

Nc1ccc(C(=O)NCC(=O)O)cc1 [PAH, p-aminohippuric acid]
uptake of radiolabeled compound by oocyte in which rk1411 was expressed (rat OAT3 (rk1411) [1]): could take up
Km (rat OAT3 (rk1411) [2]): 64700 ± 10000 nM
Vmax (rat OAT3 (rk1411) [2]; [8]): 23.3 ± 2.8 pmol/hr/oocyte
uptake of radiolabeled compound by oocyte with hOAT3 expression (hOAT3 [3]; substrate 10 μM): takes up
inhibition of the transport of 3H-estrone sulfate with hOAT3 (hOAT3 [4]): significantly inhibited

C[C@@H]1Cc2c(Cl)cc(C(=O)N[C@@H](Cc3ccccc3)C(=O)O)c(O)c2C(=O)O1 [ochratoxin A]
uptake of radiolabeled compound by oocyte in which rk1411 was expressed (rat OAT3 (rk1411) [1]): could take up
Vmax (rat OAT3 (rk1411) [2]; [8]): 8.08 ± 0.33 pmol/hr/oocyte
Km (rat OAT3 (rk1411) [2]; transport by rk1411 (rat OAT3) in Xenopus oocyte, FIG. 2, listed as Ochratoxin A, read-out: Km): 739 ± 178 nM
Km (rat OAT3 (rk1411) [2]; [9]): 740 nM
uptake of radiolabeled compound by oocyte with hOAT3 expression (hOAT3 [3]; substrate 100 nM): takes up

estrone sulfate
Km (rat OAT3 (rk1411) [2]; transport by rk1411 (rat OAT3) in Xenopus oocyte, FIG. 2, listed as Estrone sulfate, read-out: Km): 2340 ± 200 nM
Km (rat OAT3 (rk1411) [2]; [9]): 2300 nM
uptake of radiolabeled compound by oocyte with hOAT3 expression (hOAT3 [3]; substrate 50 nM): takes up
Km (hOAT3 [5]): 3.08 µM
inhibition of the transport of 3H-estrone sulfate with hOAT3 (hOAT3 [4]): significantly inhibited

B1: rat OAT3 (rk1411) (Rattus norvegicus) (protein)
chain: MTFSEILDRVGSMGPFQYLHVTLLALPVLGIANHNLLQIFTATTPVHHCRPPPNASIGPWVLPLDPNGKPEKCLRFVHLPNASLPNDTQRATEPCLDGWIYNSTRDTIVIEWDLVCSSNKLKEMAQSIFMAGILVGGPVIGELSDRFGRKPILTWSYLMLAASGSGAAFSPSLPVYMIFRFLCGCSISGISLSTVILNVEWVPTSMRAISSTSIGYCYTIGQFILSGLAYAIPQWRWLQLTSSAPFFIFSLLSWWVPESIRWLVLSGKYSKALKTLQRVATFNGKKEEGKKLTIEELKFNLQKDITSAKVKYGLSDLFRVSILRRVTFCLSLAWFSTGFAYYSLAMGVEEFGVNIYILQIIFGGVDIPAKFITILSLSYLGRRITQSFLLLLAGGAILALIFVPSEMQLLRTALAVFGKGCLSGSFSCLFLYTSELYPTVLRQTGMGISNVWARVGSMIAPLVKITGELQPFIPNVIFGTTALLGGSAAFFLLETLNRPLPETIEDIQNWHKQVQKTKQESEAEKASQIIPLKTGG
notes: cRNA (RNA complementary to cDNA) was prepared in vitro from the plasmid carrying the clone (rk1411); expressed in transfected cells; host or cells: Xenopus oocytes injected with rk1411 cRNA
Km [6]: 4.7 µM

B2: hOAT3 (Homo sapiens; D366H/K271E) (protein)
chain: MTFSEILDRVGSMGHFQFLHVAILGLPILNMANHNLLQIFTAATPVHHCRPPHNASTGPWVLPMGPNGKPERCLRFVHPPNASLPNDTQRAMEPCLDGWVYNSTKDSIVTEWDLVCNSNKLKEMAQSIFMAGILIGGLVLGDLSDRFGRRPILTCSYLLLAASGSGAAFSPTFPIYMVFRFLCGFGISGITLSTVILNVEWVPTRMRAIMSTALGYCYTFGQFILPGLAYAIPQWRWLQLTVSIPFFVFFLSSWWTPESIRWLVLSGKSSEALKILRRVAVFNGKKEEGERLSLEELKLNLQKEISLAKAKYTASDLFRIPMLRRMTFCLSLAWFATGFAYYSLAMGVEEFGVNLYILQIIFGGVHVPAKFITILSLSYLGRHTTQAAALLLAGGAILALTFVPLDLQTVRTVLAVFGKGCLSSSFSCLFLYTSELYPTVIRQTGMGVSNLWTRVGSMVSPLVKITGEVQPFIPNIIYGITALLGGSAALFLPETLNQPLPETIEDLENWSLRAKKPKQEPEVEKASQRIPLQPHGPGLGSS
Km [7]: 2.22 µM
